Like-named read-outs stand apart in the source and are kept apart here. Marks after values point to notes of the source that are not given here.
Key:
[1] = molecular target: gabapentin-binding site (presumably α2-δ subunit proteins) (Rattus norvegicus, UniProt P54290); test: [3H]gabapentin-binding assay, rat cerebral cortex membranes
PSL rats = test: Anti-allodynia test in PSL; type: in vivo; conditions: 30 mg/kg oral
[2] = human; cited from earlier work
SNL rats = conditions: previously reported; cited from earlier work
[3] = Pharmacokinetics after single oral dosing, plasma and brain by LC-MS/MS; type: in vivo, rats; conditions: male, SD, rat, 30 mg/kg
[4] = test system: neuromuscular coordination in rats; test: Rotarod test; conditions: for duration (s) 1 h / duration (s) 2 h / duration (s) 3 h: mean (SEM), max 180 s
SNL mice = test: Anti-allodynia test in SNL; conditions: 30 mg/kg oral gavage
[5] = dog; cited from earlier work

Sequence of gabapentin-binding site (presumably α2-δ subunit proteins) (P54290 25-1091): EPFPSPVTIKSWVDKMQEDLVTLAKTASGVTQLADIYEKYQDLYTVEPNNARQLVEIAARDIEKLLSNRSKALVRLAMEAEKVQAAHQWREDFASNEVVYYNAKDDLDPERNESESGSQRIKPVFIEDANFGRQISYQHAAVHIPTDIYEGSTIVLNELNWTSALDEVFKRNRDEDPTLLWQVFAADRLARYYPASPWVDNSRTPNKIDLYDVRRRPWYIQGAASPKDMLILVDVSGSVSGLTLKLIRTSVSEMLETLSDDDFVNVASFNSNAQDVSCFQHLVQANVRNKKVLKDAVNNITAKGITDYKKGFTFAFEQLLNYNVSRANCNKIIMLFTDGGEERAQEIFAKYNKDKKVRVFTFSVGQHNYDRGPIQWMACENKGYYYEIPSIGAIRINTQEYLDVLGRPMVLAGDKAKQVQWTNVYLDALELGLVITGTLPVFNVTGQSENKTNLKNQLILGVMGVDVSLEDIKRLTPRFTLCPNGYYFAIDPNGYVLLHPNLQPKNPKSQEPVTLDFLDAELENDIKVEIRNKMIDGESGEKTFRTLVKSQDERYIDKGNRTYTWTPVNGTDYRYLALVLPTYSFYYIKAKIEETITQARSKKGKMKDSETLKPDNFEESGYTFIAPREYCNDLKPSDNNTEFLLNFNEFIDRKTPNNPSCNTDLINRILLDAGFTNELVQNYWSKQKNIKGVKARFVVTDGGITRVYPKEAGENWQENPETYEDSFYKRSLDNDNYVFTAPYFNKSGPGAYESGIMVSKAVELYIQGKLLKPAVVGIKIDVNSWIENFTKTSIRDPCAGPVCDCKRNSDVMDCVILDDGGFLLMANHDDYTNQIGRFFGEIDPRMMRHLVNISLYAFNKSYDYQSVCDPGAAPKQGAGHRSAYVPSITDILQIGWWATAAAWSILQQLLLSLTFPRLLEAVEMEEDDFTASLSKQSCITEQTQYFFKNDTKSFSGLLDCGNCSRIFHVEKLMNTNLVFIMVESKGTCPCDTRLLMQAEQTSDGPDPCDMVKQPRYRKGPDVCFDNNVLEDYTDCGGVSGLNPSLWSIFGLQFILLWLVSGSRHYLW

In the case of `CC(C)CC(CN)CC(=O)O` (centres unmarked) [pregabalin, 3-isobutyl-γ-aminobutyric acid], the “RBA (%)” value ([1]; IC50 of pregabalin divided by IC50 of test compound) is reported as 100%, the inhibition at 0.39 µM ([1]; read-out: % inhibition (at μM)) is reported as 79% and the analgesic effects (PSL rats; PSL (Seltzer) rats) is reported as “significant analgesic effects”. The “time at which efficacy on the ipsilateral side peaked” value (PSL rats; PSL rats) was 180 min, the “time up to which efficacy on the ipsilateral side was sustained” value (PSL rats; PSL rats) was 300 min and the “hypalgesic effect on the contralateral side” value (PSL rats; PSL rats, 180 min after administration) was “remarkable hypalgesic effect”. The “plasma half-life (T1/2)” value [2] was “around 6 h”, the “effect on pain thresholds on both sides of SNL rats” value (SNL rats) was “bilateral hypalgesic activity” and the concentration at 1 h ([3]; brain) was 12.4 µM. For the same compound, the concentration at 1 h ([3]; plasma) was 109 µM, the “duration (s) 1 h” value ([4]; 10 mg/kg oral) was 180 (0.0) s and the “duration (s) 2 h” value ([4]; 10 mg/kg oral) was 160 (19.8) s. The “duration (s) 3 h” value ([4]; 10 mg/kg oral, 10 mg/kg) was “significantly shortened”, the “duration (s) 1 h” value ([4]; 30 mg/kg oral) was 180 (0.0) s and the “duration (s) 2 h” value ([4]; 30 mg/kg oral) was 93 (24.4)^## s. For the same compound, the “duration (s) 3 h” value ([4]; 30 mg/kg oral) was 12 (3.7)^## s, the “duration (s) 1 h” value ([4]; 100 mg/kg oral) was 53 (11.5)^# s and the “duration (s) 2 h” value ([4]; 100 mg/kg oral) was 13 (6.3)^## s. The “duration (s) 3 h” value ([4]; 100 mg/kg oral) was 6 (2.1)^## s, the “effect on neuromuscular coordination (duration on the rotating rods)” value ([4]; oral, over the doses tested) was “significantly and dose-dependently reduced the duration” and the “antiallodynic activity (pain thresholds, paw withdrawal to von Frey filaments)” value (SNL mice; SNL mice) was “significant antiallodynic activity”. The “pain thresholds in sham mice (hypalgesic effect)” value (SNL mice; sham mice) was “significantly increased the pain thresholds in sham mice at the late time point of 180 min” and the “plasma half-life (T1/2)” value [5] was “around 6 h”.
